Laboratory results published in ChEMBL document CHEMBL1201862, “PubChem BioAssay data set” (2004).
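Five concentrations, 48 hours, 96-well plates. GI50 marks 50% less growth.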 Calls of active or inactive are those of the source. Cut-off read from the data, not from the text of the source: active = GI50 up to about 1.1 µM and inactive = higher.

Key:
Assay in all cases: NCI-60 cell line screen, 48 h
RPMI-8226 = system: RPMI-8226
UACC-62 = system: UACC-62
SK-MEL-5 = system: SK-MEL-5
SN12C = system: SN12C
SW-620 = system: SW-620
LOX IMVI = system: LOX IMVI
Hs-578T = system: Hs-578T
MDA-MB-231 = system: MDA-MB-231
HOP-92 = system: HOP-92
NCI-H522 = system: NCI-H522
SF-539 = system: SF-539
HL-60 = system: HL-60
U-251 = system: U-251
MOLT-4 = system: MOLT-4
T47D = system: T47D
ACHN = system: ACHN
UACC-257 = system: UACC-257
IGROV-1 = system: IGROV-1
HOP-62 = system: HOP-62
K562 = system: K562
SF-295 = system: SF-295
CAKI-1 = system: CAKI-1
HT-29 = system: HT-29
786-0 = system: 786-0
OVCAR-5 = system: OVCAR-5
A549 = system: A549
SNB-19 = system: SNB-19
NCI-H23 = system: NCI-H23
HCT-15 = system: HCT-15
OVCAR-8 = system: OVCAR-8
HCT-116 = system: HCT-116
DU-145 = system: DU-145
RXF 393 = system: RXF 393
UO-31 = system: UO-31
EKVX = system: EKVX
KM12 = system: KM12
BT-549 = system: BT-549
PC-3 = system: PC-3
A498 = system: A498
MDA-MB-435 = system: MDA-MB-435
MCF7 = system: MCF7
TK-10 = system: TK-10
COLO 205 = system: COLO 205
Malme-3M = system: Malme-3M
SK-OV-3 = system: SK-OV-3
NCI/ADR-RES = system: NCI/ADR-RES
M14 = system: M14
NCI-H460 = system: NCI-H460
NCI-H226 = system: NCI-H226
OVCAR-3 = system: OVCAR-3
CCRF-CEM = system: CCRF-CEM
SF-268 = system: SF-268
OVCAR-4 = system: OVCAR-4
MDA-N = system: MDA-N
SR = system: SR
SK-MEL-28 = system: SK-MEL-28
HCC 2998 = system: HCC 2998
SNB-75 = system: SNB-75
SK-MEL-2 = system: SK-MEL-2

Measured: GI50

CCCNC(=O)OCc1c(COC(=O)NCCC)c(-c2ccc(Cl)c(Cl)c2)n2c1CCC2
4.18 µM: HCT-15
inactive: RPMI-8226 5.02 µM | UACC-62 2.8 µM | SK-MEL-5 5.98 µM | SN12C 3.11 µM | SW-620 4.63 µM | LOX IMVI 3.78 µM | Hs-578T 6.56 µM | MDA-MB-231 4.84 µM | HOP-92 2.52 µM | NCI-H522 1.16 µM | SF-539 3 µM | HL-60 2.64 µM | U-251 4.98 µM | MOLT-4 3.11 µM | T47D 11.4 µM | ACHN 2.01 µM | UACC-257 4.79 µM | HOP-62 6.01 µM | K562 4.31 µM | SF-295 2.95 µM | CAKI-1 1.72 µM | HT-29 4.12 µM | 786-0 2.82 µM | OVCAR-5 3.76 µM | A549 6.61 µM | SNB-19 8.93 µM | NCI-H23 5.93 µM | OVCAR-8 4.36 µM | HCT-116 5.09 µM | DU-145 7 µM | RXF 393 2.35 µM | UO-31 2.86 µM | EKVX 11.2 µM | KM12 10.7 µM | BT-549 4.07 µM | PC-3 8.59 µM | A498 1.26 µM | MDA-MB-435 11.5 µM | MCF7 5.75 µM | TK-10 1.86 µM | COLO 205 3.64 µM | Malme-3M 2.94 µM | SK-OV-3 2.81 µM | NCI/ADR-RES 3.89 µM | M14 10.6 µM | NCI-H460 3.57 µM | NCI-H226 1.58 µM | OVCAR-3 14 µM | CCRF-CEM 1.98 µM | SF-268 4.33 µM
active: IGROV-1 1.05 µM

C=CCN1C(=O)CC1N(CC=C)S(=O)(=O)c1ccc(C)cc1 (centres undefined)
inactive: OVCAR-4 > 100 µM | RPMI-8226 > 100 µM | UACC-62 > 100 µM | SK-MEL-5 > 100 µM | MDA-N > 100 µM | SN12C 61.7 µM | SW-620 > 100 µM | LOX IMVI > 100 µM | Hs-578T > 100 µM | HOP-92 > 100 µM | NCI-H522 > 100 µM | HL-60 > 100 µM | U-251 > 100 µM | SR 82.8 µM | MOLT-4 > 100 µM | ACHN > 100 µM | UACC-257 > 100 µM | IGROV-1 > 100 µM | K562 98.4 µM | SF-295 > 100 µM | CAKI-1 > 100 µM | HT-29 > 100 µM | 786-0 > 100 µM | SK-MEL-28 > 100 µM | OVCAR-5 > 100 µM | A549 > 100 µM | SNB-19 > 100 µM | NCI-H23 > 100 µM | OVCAR-8 > 100 µM | HCT-116 > 100 µM | DU-145 > 100 µM | RXF 393 > 100 µM | UO-31 > 100 µM | EKVX > 100 µM | KM12 > 100 µM | BT-549 > 100 µM | PC-3 > 100 µM | A498 > 100 µM | HCC 2998 > 100 µM | MDA-MB-435 > 100 µM | MCF7 > 100 µM | TK-10 > 100 µM | COLO 205 > 100 µM | Malme-3M > 100 µM | SK-OV-3 > 100 µM | NCI/ADR-RES > 100 µM | M14 > 100 µM | NCI-H460 > 100 µM | NCI-H226 > 100 µM | OVCAR-3 > 100 µM | CCRF-CEM > 100 µM
> 100 µM: HCT-15

CCc1ccc(COC(=O)C2=C(C)NC(C)=C(C(=O)OCc3ccc(CC)cn3)C2C2=COCCO2)nc1
22.7 µM: HCT-15
inactive: OVCAR-4 25.1 µM | UACC-62 13.5 µM | SK-MEL-5 13.3 µM | SN12C > 10 µM | SW-620 27.8 µM | LOX IMVI 15.2 µM | Hs-578T 14 µM | MDA-MB-231 14.2 µM | HOP-92 20.7 µM | NCI-H522 19.5 µM | SF-539 14.4 µM | HL-60 22.4 µM | U-251 17.5 µM | SR 21.8 µM | MOLT-4 12.6 µM | T47D 11.3 µM | ACHN 25.2 µM | SNB-75 14.4 µM | UACC-257 20.5 µM | IGROV-1 39.8 µM | HOP-62 17.5 µM | K562 18.2 µM | SF-295 24.9 µM | CAKI-1 23.9 µM | HT-29 21.4 µM | 786-0 23.2 µM | SK-MEL-28 18.5 µM | OVCAR-5 28.1 µM | A549 25.2 µM | SNB-19 18.8 µM | NCI-H23 20 µM | OVCAR-8 32.9 µM | HCT-116 16.3 µM | DU-145 24.9 µM | RXF 393 15.4 µM | UO-31 20.2 µM | EKVX 12.7 µM | KM12 30.7 µM | BT-549 14.4 µM | PC-3 16 µM | HCC 2998 19.9 µM | MDA-MB-435 19.5 µM | MCF7 19.5 µM | TK-10 33.7 µM | COLO 205 12.5 µM | SK-OV-3 16.6 µM | NCI/ADR-RES 22 µM | M14 16.9 µM | NCI-H460 31.5 µM | NCI-H226 16.2 µM | OVCAR-3 19.7 µM | CCRF-CEM 16.2 µM | SF-268 27.4 µM

O=S(=O)(N/N=C1\CC2CCC1C2)c1ccccc1 (centres undefined)
inactive: OVCAR-4 > 100 µM | RPMI-8226 > 100 µM | UACC-62 > 100 µM | SK-MEL-5 > 100 µM | MDA-N > 100 µM | SN12C > 100 µM | SW-620 > 100 µM | LOX IMVI > 100 µM | Hs-578T > 100 µM | HOP-92 > 100 µM | NCI-H522 > 100 µM | HL-60 > 100 µM | U-251 > 100 µM | SR > 100 µM | MOLT-4 > 100 µM | ACHN > 100 µM | SNB-75 > 100 µM | UACC-257 > 100 µM | IGROV-1 > 100 µM | HOP-62 > 100 µM | K562 > 100 µM | SF-295 > 100 µM | CAKI-1 > 100 µM | HT-29 > 100 µM | 786-0 > 100 µM | SK-MEL-28 > 100 µM | OVCAR-5 > 100 µM | A549 > 100 µM | SNB-19 > 100 µM | NCI-H23 > 100 µM | OVCAR-8 > 100 µM | HCT-116 > 100 µM | DU-145 > 100 µM | SK-MEL-2 > 100 µM | UO-31 > 100 µM | EKVX > 100 µM | KM12 > 100 µM | BT-549 > 100 µM | PC-3 > 100 µM | MDA-MB-435 > 100 µM | MCF7 > 100 µM | TK-10 > 100 µM | COLO 205 > 100 µM | Malme-3M > 100 µM | SK-OV-3 > 100 µM | NCI/ADR-RES > 100 µM | M14 > 100 µM | NCI-H460 > 100 µM | NCI-H226 > 100 µM | OVCAR-3 > 100 µM | CCRF-CEM > 100 µM | SF-268 > 100 µM
> 100 µM: HCT-15

OCCN1c2ccccc2Sc2ccccc21
inactive: OVCAR-4 > 10 µM | RPMI-8226 > 10 µM | SK-MEL-5 > 10 µM | MDA-N > 10 µM | SN12C > 10 µM | SW-620 > 10 µM | LOX IMVI > 10 µM | Hs-578T > 10 µM | MDA-MB-231 > 10 µM | HOP-92 > 10 µM | NCI-H522 > 10 µM | SF-539 > 10 µM | HL-60 > 10 µM | U-251 > 10 µM | SR > 10 µM | MOLT-4 > 10 µM | ACHN > 10 µM | SNB-75 > 10 µM | UACC-257 > 10 µM | HOP-62 > 10 µM | K562 > 10 µM | SF-295 > 10 µM | CAKI-1 > 10 µM | HT-29 > 10 µM | 786-0 > 10 µM | SK-MEL-28 > 10 µM | OVCAR-5 > 10 µM | A549 > 10 µM | SNB-19 > 10 µM | NCI-H23 > 10 µM | OVCAR-8 > 10 µM | HCT-116 > 10 µM | DU-145 > 10 µM | KM12 > 10 µM | BT-549 > 10 µM | PC-3 > 10 µM | HCC 2998 > 10 µM | MDA-MB-435 > 10 µM | MCF7 > 10 µM | TK-10 > 10 µM | COLO 205 > 10 µM | Malme-3M > 10 µM | SK-OV-3 > 10 µM | NCI/ADR-RES > 10 µM | M14 > 10 µM | OVCAR-3 > 10 µM | SF-268 > 10 µM
> 10 µM: HCT-15
